Legend:
[1] = test system: leukocyte esterase (LE); assay: screen-printed electrode strip with monoester substrate, voltammograms at varying LE concentrations; type: biochemical; details: substrate screen-printed on electrode strip; 0.125 U/m to 0.35 U/ml LE (FIG. 7)
From the text: In one embodiment, the substrate of the leukocyte esterase enzyme is screen-printed onto the surfaces of an electrode sensor strips using known and commercially-available techniques and materials.
Specifically, electrode strips were screen printed with the substrate having the structure as depicted in Formula V. The strips were contacted with varying concentrations of LE (i.e. 0.125 U/m to 0.35 U/ml LE).
The plot clearly indicates significant reduction peaks at about −0.17 V, which correspond to the redox reaction of hydroquinone molecules that are released upon cleavage of the monoester by leukocyte esterases at the ester active site. […] Based on this measured level, a determination can be made as to whether the patient's level of LE is high enough to indicate infection.

[2] = test system: leukocyte esterase (LE); assay: internally calibrated electrochemical continuous enzyme assay (ICECEA) with TAPTA as enzyme substrate; type: biochemical; details: LE concentrations 0-250 μg/L, amperometric current (FIG. 4)
Description: ICECEAs generally follow the following method as described in U.S. 201610040209. First, an enzyme substrate (e.g. an LE and/or HNE substrate of the present disclosure) is placed in a background electrolyte. Next, a reactant or product of an enzymatic reaction of the enzyme is added to the first enzyme substrate/background electrolyte, which creates what is described as a “first assay mixture.” Current flowing through an electrode of the electrochemical assay is then measured after the first assay mixture is formed. Next, the enzyme (e.g. LE and/or HNE) is added to the “first assay mixture” to create a “second assay mixture,” and the current is measured again over a predetermined time period. Enzyme activity is determined based on the change in current over time caused by the addition of the enzyme. […]
The ICECEA includes an electrochemical measuring device. […] The current is measured through the working electrode. […]
Generally, in an ICECEA, adding the reactant/product to the enzyme substrate (in electrolyte) in the electrochemical assay system includes the following steps. […] Current flowing through an electrode of the electrochemical assay system is measured after the first aliquot is added. One or more additional aliquots of the reactant/product are added to the mixture and current flowing through an electrode of the electrochemical assay system is measured again. […]

Compound	melting point [°C]	relation of reduction peaks to LE activity in the sample [1]	response of LE enzyme activity relative to LE concentration [2]
COC(=O)c1cncc(S(=O)(=O)N[C@@H](C)C(=O)Oc2ccc(O)cc2)c1 [monoester]	113 to 116	directly related to the LE activity within the sample in a dose dependent manner	
Cc1ccc(S(=O)(=O)N[C@@H](C)C(=O)Oc2ccc(OC(=O)[C@H](C)NS(=O)(=O)c3ccc(C)cc3)cc2)cc1 [TAPTA, 4-((tosyl-L-alanyl)oxy)phenyl tosyl-L-alaninate]			linear response relative to LE concentration
